Experimental findings from ChEMBL document CHEMBL1811808, “A mechanism-based potent sirtuin inhibitor containing Nε-thiocarbamoyl-lysine (TuAcK)” (Bioorg Med Chem Lett, 2011) are described below.

pIC50: −log10 of the molar value. Calls of active or inactive are those of the source. No cut-off for these calls is given here. Square brackets hold non-standard residues; d marks the D form. Peptide text beside a SMILES is read from it. Asu = N[C@@H](CCCCCC(=O)O)C(=O)O

In experiment [1] the target is T1, NAD-dependent protein deacetylase sirtuin-1 (Homo sapiens, UniProt Q96EB6).
T1 sequence (Q96EB6 whole entry): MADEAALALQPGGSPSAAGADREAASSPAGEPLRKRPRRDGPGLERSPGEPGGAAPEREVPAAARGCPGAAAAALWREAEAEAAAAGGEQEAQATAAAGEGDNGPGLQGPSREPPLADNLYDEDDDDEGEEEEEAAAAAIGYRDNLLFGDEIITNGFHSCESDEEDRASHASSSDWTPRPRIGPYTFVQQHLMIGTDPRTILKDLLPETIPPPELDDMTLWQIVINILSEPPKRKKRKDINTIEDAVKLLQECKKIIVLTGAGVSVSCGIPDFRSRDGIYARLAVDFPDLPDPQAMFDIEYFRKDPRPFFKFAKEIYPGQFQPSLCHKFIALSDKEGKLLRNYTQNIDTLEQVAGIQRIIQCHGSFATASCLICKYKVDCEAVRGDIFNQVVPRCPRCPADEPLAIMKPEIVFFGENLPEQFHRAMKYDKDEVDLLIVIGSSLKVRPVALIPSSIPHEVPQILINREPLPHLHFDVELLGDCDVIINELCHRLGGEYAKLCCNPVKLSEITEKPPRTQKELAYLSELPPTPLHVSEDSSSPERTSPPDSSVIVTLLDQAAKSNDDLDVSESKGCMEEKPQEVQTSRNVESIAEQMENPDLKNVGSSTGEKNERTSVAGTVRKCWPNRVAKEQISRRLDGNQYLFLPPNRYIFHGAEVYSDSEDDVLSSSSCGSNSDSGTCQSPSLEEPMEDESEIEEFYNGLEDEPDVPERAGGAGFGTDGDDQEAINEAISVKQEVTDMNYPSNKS
Put plainly: Inhibition of human GST-tagged SIRT1 using H2NHK-AcK-LM-COOH as substrate assessed as enzymatic deacetylation product formation after 5 mins by HPLC analysis.

Experiment [2] deals with T2, NAD-dependent protein deacetylase sirtuin-2 (Homo sapiens, UniProt Q8IXJ6).
T2 sequence (Q8IXJ6 whole entry): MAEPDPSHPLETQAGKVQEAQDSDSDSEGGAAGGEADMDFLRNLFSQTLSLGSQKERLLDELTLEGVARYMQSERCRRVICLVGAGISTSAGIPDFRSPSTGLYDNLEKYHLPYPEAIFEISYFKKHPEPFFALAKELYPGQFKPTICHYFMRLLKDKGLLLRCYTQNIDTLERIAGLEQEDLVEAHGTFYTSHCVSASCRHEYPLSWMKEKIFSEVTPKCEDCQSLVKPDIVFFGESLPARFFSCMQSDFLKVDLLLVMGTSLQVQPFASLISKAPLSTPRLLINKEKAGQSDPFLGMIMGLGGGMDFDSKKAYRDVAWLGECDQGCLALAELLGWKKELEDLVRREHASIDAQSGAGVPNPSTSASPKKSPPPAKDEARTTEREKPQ
As to the kind of experiment: Inhibition of human full length SIRT2 using H2N-MPSD-AcK-TIGG-COOH as substrate assessed as enzymatic deacetylation product formation after 60 mins by HPLC analysis.

For experiment [3], the target named is T3, NAD-dependent protein deacetylase sirtuin-1 (Homo sapiens) (UniProt Q96EB6).
T3 sequence (whole entry): T1 sequence (Q96EB6 whole entry)
As to the kind of experiment: Inhibition of SIRT1 in human HCT116 cells expressing wild type p53 assessed as increase in p53 acetylation at K382 after 10 hr by Western blot analysis. Particulars: HCT-116. (Immunoblotting shows a protein as a band on a membrane.)

Experiment [4] has as its target T3, NAD-dependent protein deacetylase sirtuin-1 (Homo sapiens). As to the kind of experiment: Activity at SIRT1 assessed as formation of alkylamidate intermediate of compound at 0.6 mM after 1 min by MALDI-MS analysis in presence of NAD+.

As a reminder, the pIC50 is the IC50 on a negative log10 scale, so that one unit is a factor of ten.

Regarding `CC(=O)NCCCC[C@H](NC(=O)[C@H](CCCCCC(N)=O)NC(=O)[C@H](CCCCNC(C)=O)NC(C)=O)C(N)=O` (Ac-Lys(Ac)-[Asu](NH2)-Lys(Ac)-NH2), the negative logarithm of the IC50 (pIC50) in experiment [1] was 3.54; in experiment [2], 3.72.

Turning to `CC(=O)NCCC[C@H](NC(=O)[C@H](CCCCNC(N)=S)NC(=O)[C@H](CCCNC(C)=O)NC(C)=O)C(N)=O`, the inhibition result in experiment [3] is “Dose-dependent effect”. In experiment [1], the negative logarithm of the IC50 (pIC50) was 4.05. The outcome in experiment [4] was Active.
